Measured values as given in PMC4444023 (PLoS ONE, 2015).
Values joined by “and” are separate entries in the source; they are usually repeats but may differ in a detail not shown here. Identical values can stand only once.

What was measured:
human nSMase2 [1] = biological target: T1, human nSMase2 (Homo sapiens, UniProt Q9NY59); assay: 14C-SM confirmatory direct activity assay; assay type: biochemical; parameters: Full length human nSMase2 cDNA with a C-terminal Flag tag; host or cells: HEK293, stably transfected; crude cell lysate used as enzyme; details: for IC50: [14C]-SM direct activity assay, human recombinant enzyme
T1 sequence (Q9NY59 1-655): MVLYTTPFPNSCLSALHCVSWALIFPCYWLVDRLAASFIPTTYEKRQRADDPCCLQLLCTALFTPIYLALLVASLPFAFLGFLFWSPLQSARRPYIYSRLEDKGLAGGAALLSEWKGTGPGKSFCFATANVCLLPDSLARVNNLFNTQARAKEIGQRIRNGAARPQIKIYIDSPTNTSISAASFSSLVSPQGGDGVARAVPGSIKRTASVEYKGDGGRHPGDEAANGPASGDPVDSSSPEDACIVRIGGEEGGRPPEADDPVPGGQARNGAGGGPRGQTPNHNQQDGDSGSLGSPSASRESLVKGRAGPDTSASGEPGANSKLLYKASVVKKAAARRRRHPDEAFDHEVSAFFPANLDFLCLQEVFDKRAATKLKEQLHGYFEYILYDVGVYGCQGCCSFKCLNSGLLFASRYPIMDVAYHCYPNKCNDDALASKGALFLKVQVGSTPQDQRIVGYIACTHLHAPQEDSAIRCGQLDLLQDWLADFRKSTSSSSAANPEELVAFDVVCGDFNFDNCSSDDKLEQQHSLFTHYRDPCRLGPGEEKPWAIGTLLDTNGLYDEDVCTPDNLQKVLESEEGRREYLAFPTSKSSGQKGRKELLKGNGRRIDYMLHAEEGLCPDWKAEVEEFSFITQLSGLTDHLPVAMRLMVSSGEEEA
Method: This assay was dependent on the direct hydrolysis of ^14C-labeled SM (^14C N-methyl groups in the phosphorylcholine) by human nSMase2. Optimization of assay conditions was accomplished according to the methods of Barbone et al.. Briefly, bovine [N-methyl-^14C]-sphingomyelin (specific activity […], Perkin Elmer) and phosphatidylinositol (Avanti Polar Lipids) were evaporated to dryness under a stream of nitrogen and resuspended at an equimolar concentration of 0.1 mM in water with 0.5% Triton X-100 (Sigma). The solution was vortexed for 30 min and then sonicated for 30 min. Assay conditions were as follows: 50 μl total volume per reaction, consisting of 20 μM SM, reaction buffer (100 mM Tris-HCl pH 7.5, 80 mM MgCl2, 0.1% Triton X-100); 10 μl cell lysate containing recombinant human nSMase2 (0.5–1 μg protein/assay) and 5 μl of compound in reaction buffer containing 10% DMSO. After 1 h incubation at 37°C the reaction was terminated by the addition of 30 μl of water and 175 μl of chloroform/methanol (2:1, v:v), followed by vigorous vortexing. Tubes were centrifuged for 5 min at 10,000 xg at room temperature to separate the organic bottom phase containing labeled SM and the aqueous upper phase containing ^14C-labeled-phosphorylcholine. An aliquot (50 μl) of the upper phase was transferred to a vial with 10 ml of scintillant and counted for 2 min on a Beckman LS-6000IC scintillation counter. Enzyme activity was directly proportional to the disintegrations per min (dpm) resulting from the generation of ^14C-phosphorylcholine.

[2] = test system: rat primary hippocampal neurons; assay: Hippocampal neuronal survival (Hoechst 33342); assay type: cell-based
Method: All animal procedures were approved by the Johns Hopkins University Animal Care and Use Committee. Primary hippocampal neurons were prepared from day 18 decapitated embryos of Sprague-Dawley rats following previously described methods. Cells were seeded on polyethyleneimine (PEI)-coated slides in 12-well plates and cultured between 14–21 days. […] After 18 h, cells were stained with 50 μg/ml Hoeschst 33342 for 20 min and then fixed with 4% paraformaldehyde for 30 min. The number of living and apoptotic cells was determined by fluorescence microscopy. A minimum of 500 cells were counted per treatment condition. Results were normalized to control untreated cells and were representative of at least two independent experiments conducted in triplicate. Statistical evaluation of the data was done by Student’s t-test.

[3] = test system: rat primary cortical neurons; assay: Lipid extraction and ceramide measurements (LC-MS/MS); assay type: cell-based
Method: Primary cortical neurons were prepared from embryonic day 18 Sprague-Dawley rats following previously described methods. […] A crude lipid extract from cortical neurons was obtained using a modified Bligh and Dyer procedure. Ceramide C12:0 (Avanti Polar Lipids) was included as an internal standard. The organic layers were dried in a nitrogen evaporator (Organomation Associates Inc.) and stored at -80°C. Dried organic layers were resuspended in methanol just prior to analysis. The detection and quantitation of individual ceramide species was performed on a high-performance liquid chromatography (HPLC) coupled electrospray ionization triple quadrupole mass spectrometer (API3000, AB Sciex Inc.) using settings similar to those described in previous studies. Samples were handled by a CTC PAL autosampler (LEAP Technologies Inc.) and injected into an HPLC (PerkinElmer) equipped with a reverse phase C18 column (Phenomex). […] The eluted sample was injected into the electrospray ionization source and detection of each ceramide species was conducted by multiple reaction monitoring. Spectral analysis was conducted using MultiQuant (AB Sciex Inc.), individually validated and normalized to the internal standard. Final data for each ceramide species in counts per second was expressed as the ratio of analyte/internal standard.

human nSMase2 [4] = biological target: T1, human nSMase2; assay: Fluorescence (Amplex red coupled) nSMase2 activity assay; assay type: biochemical; parameters: Full length human nSMase2 cDNA with a C-terminal Flag tag; crude cell lysate used as enzyme
Method: The production of the latter was coupled to a dephosphorylation reaction catalyzed by alkaline phosphatase (4 U/ml) to produce choline, followed by oxidation of choline by choline oxidase (0.1 U/ml) to produce betaine and H2O2, which in the presence of horseradish peroxidase (HRP, 1U/ml) and 50 μM Amplex red, generates the fluorescent molecule resorufin (Life Technologies). Substrate stock solution was prepared in 2% Triton X-100, vortexed and sonicated for 30 min. Reactions were carried out for 1 h at 37°C in 100 mM Tris-HCl pH 7.4, 10 mM MgCl2, 0.2% Triton X-100 and the generation of the fluorescent product was monitored by measuring relative florescence units (RFU) with excitation at 530 nm and emission at 590 nm (Fig 1). This assay was optimized for 384-well format (50 μl total volume per well) based on linearity of the enzymatic activity with respect to time, as well as substrate and enzyme concentrations. […] This fluorescence assay was used for compound screening and IC50 value determinations, based on duplicate eight-point dose response curves.

[5] = TNF-a: 100 ng/ml TNF-α for 2 min

Compound: Cc1ccccc1-c1[nH]c(=S)[nH]c(=O)c1Cc1c(O)ccc2ccccc12 [compound 6]
- %Inhibition (human nSMase2 [1]; Log [compound] -4.0): 95.0% and 94.0%
- %Inhibition (human nSMase2 [1]; Log [compound] -5.0): 80.0% and 79.0%
- %Inhibition (human nSMase2 [1]; Log [compound] -6.0): 22.0% and 21.0%
- %Inhibition (human nSMase2 [1]; Log [compound] -7.0): 2.0% and 0.0%
- %Inhibition (human nSMase2 [1]; Log [compound] -8.0): -8.0% and -11.0%
- %Inhibition (human nSMase2 [1]; Log [compound] -9.0): -1.0% and -3.0%
- %Inhibition (human nSMase2 [1]; Log [compound] -10.0): -11.0% and -10.0%
- IC50 (human nSMase2 [1]): 3 µM

Compound: O=c1[nH]c(=S)[nH]c(-c2ccc(Br)cc2)c1Cc1c(O)ccc2ccccc12 [compound 7]
- IC50 (human nSMase2 [1]): 2 ± 1 µM

Compound: O=c1[nH]c(=S)[nH]c(-c2cccc(Cl)c2)c1Cc1c(O)ccc2ccccc12 [compound 8]
- IC50 (human nSMase2 [1]): 7 ± 1 µM

Compound: O=c1[nH]c(=S)[nH]c(-c2ccccc2F)c1Cc1c(O)ccc2ccccc12 [compound 9]
- IC50 (human nSMase2 [1]): 6 ± 3 µM

Compound: O=P(O)(O)C(O)(Cn1ccnc1)P(=O)(O)O [zoledronic acid, reference compound]
- neuron survival, Mean (normalized to control untreated cells) ([2]; 100 ng/ml IL1β 18 h, 10 µM compound): 84.88
- neuron survival, Mean (normalized to control untreated cells) ([2]; 100 ng/ml IL1β 18 h, 25 µM compound): 85.75
- neuron survival, Mean (normalized to control untreated cells) ([2]; 100 ng/ml TNFα 18 h, 10 µM compound): 80.07
- neuron survival, Mean (normalized to control untreated cells) ([2]; 100 ng/ml TNFα 18 h, 25 µM compound): 81.28

Compound: TNF-α
- Ceramide d18:1/16:0, ratio analyte/internal standard [3, 5]: 2.626 and 2.724 and 1.914 and 2.181 and 2.47 and 2.215
- Ceramide d18:1/18:0, ratio analyte/internal standard [3, 5]: 9.562 and 9.737 and 7.685 and 8.892 and 9.601 and 8.529
- Ceramide d18:1/20:0, ratio analyte/internal standard [3, 5]: 0.6563 and 0.629 and 0.4932 and 0.6036 and 0.6125 and 0.6685
- Ceramide d18:1/22:0, ratio analyte/internal standard [3, 5]: 0.2034 and 0.2174 and 0.1793 and 0.213 and 0.2196 and 0.1978
- Ceramide d18:1/24:0, ratio analyte/internal standard [3, 5]: 0.2705 and 0.2427 and 0.2002 and 0.2059 and 0.2011 and 0.2312
- Ceramide d18:1/24:1, ratio analyte/internal standard [3, 5]: 0.2934 and 0.2773 and 0.185 and 0.2472 and 0.2529 and 0.2866
- Dihexosylceramides d18:1/16:0, ratio analyte/internal standard [3, 5]: 0.0212 and 0.02618 and 0.02908 and 0.01607 and 0.02926 and 0.02318
- Dihexosylceramides d18:1/18:0, ratio analyte/internal standard [3, 5]: 0.1307 and 0.1534 and 0.1151 and 0.09786 and 0.1336 and 0.132
- Dihydroceramides d18:0/18:0, ratio analyte/internal standard [3, 5]: 0.1552 and 0.1446 and 0.1353 and 0.136 and 0.1435 and 0.1236
- Monohexosylceramides d18:1/16:0, ratio analyte/internal standard [3, 5]: 1.65E-01 and 1.78E-01 and 1.43E-01 and 1.25E-01 and 1.46E-01 and 1.28E-01
- Monohexosylceramides d18:1/18:0, ratio analyte/internal standard [3, 5]: 8.33E-01 and 9.27E-01 and 8.86E-01 and 8.09E-01 and 8.11E-01 and 9.45E-01
- Monohexosylceramides d18:1/20:0, ratio analyte/internal standard [3, 5]: 1.68E-01 and 1.71E-01 and 1.46E-01 and 1.34E-01 and 1.36E-01
- Monohexosylceramides d18:1/22:0, ratio analyte/internal standard [3, 5]: 6.26E-02 and 5.07E-02 and 4.08E-02 and 5.38E-02 and 5.08E-02 and 5.16E-02
- Monohexosylceramides d18:1/24:0, ratio analyte/internal standard [3, 5]: 4.46E-02 and 4.59E-02 and 3.01E-02 and 3.48E-02 and 3.50E-02 and 3.93E-02
- Monohexosylceramides d18:1/24:1, ratio analyte/internal standard [3, 5]: 9.28E-02 and 9.45E-02 and 8.80E-02 and 6.42E-02 and 8.57E-02 and 6.27E-02
- effect on long chain ceramide levels ([3]; rat primary cortical neurons): rapid increase

Compound: phosphatidylserine
- effect on human nSMase2 activity (human nSMase2 [4]; 20 μM SM/PS at equimolar concentration (S5 Fig)): did not significantly affect

Compound: sphingomyelin [SM]
- enzymatic activity (human nSMase2 [4]; [SM] 3.91 µM): 212.26 RFU
- enzymatic activity (human nSMase2 [4]; [SM] 7.81 µM): 311.45 RFU
- enzymatic activity (human nSMase2 [4]; [SM] 15.63 µM): 459.12 RFU
- enzymatic activity (human nSMase2 [4]; [SM] 31.25 µM): 722.04 RFU
- enzymatic activity (human nSMase2 [4]; [SM] 62.50 µM): 1075.56 RFU
- enzymatic activity (human nSMase2 [4]; [SM] 125.00 µM): 1331.12 RFU
- enzymatic activity (human nSMase2 [4]; [SM] 250.00 µM): 1431.87 RFU
- enzymatic activity (human nSMase2 [4]; [SM] 500.00 µM): 1408.02 RFU
